How the values were obtained:
[1] = molecular target: T1, RORγ LBD-GST tagged (Homo sapiens, UniProt P51449); experiment: LanthaScreen TR-FRET RORγ coactivator assay; format: biochemical; settings: Fluorescein-D22 coactivator peptide, 1 hour room temperature
T1 construct: RORγ LBD-GST tagged (Cat No. RORC-114H, Creative Biomart); purchased Creative Biomart RORC-114H
T1 sequence (P51449 269-508 limits assumed): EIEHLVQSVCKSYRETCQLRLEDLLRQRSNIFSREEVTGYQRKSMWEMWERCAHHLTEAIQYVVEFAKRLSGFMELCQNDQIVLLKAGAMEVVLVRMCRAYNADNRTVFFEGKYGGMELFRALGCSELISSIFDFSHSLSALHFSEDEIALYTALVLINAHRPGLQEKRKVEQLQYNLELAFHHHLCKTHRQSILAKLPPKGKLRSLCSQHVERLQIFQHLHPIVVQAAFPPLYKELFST
Procedure, shortened: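 GST-tagged RORγ LBD (25 ng/reaction) was incubated in coregulator buffer D with 5 mM DTT and compound (top 3 μM, 7-fold steps, 7 doses), then with a mix containing 0.6 μM fluorescein-D22 peptide and 8 nM Tb anti-GST antibody. After 1 h at room temperature in the dark, 520/495 nm TR-FRET was read. IC50 came from log concentration versus percent inhibition.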

[2] = test system: IL-17 production, human PBMC cells; experiment: IL-17 production assay using human PBMC; format: cell-based; settings: human PBMC stimulated by cytostim for 3 days, IL-17 ELISA of supernatant
Description: Test Example 2. IL-17 Production Assay Using Human PBMC
• 1. Human PBMC cells (Cat No. 70025.1, Zenbio) • 2. Lymphocyte medium (Cat No. LYMPH-1, Zenbio) • 3. TexMACS (Cat No. 130-097-196, Miltenyi) • 4. Cytostim-human (Cat No. 1130-092-173, Miltenyi) • 5. Human IL-17 ELISA (Cat No. D1700, R&D systems) • 6. Tecan Infinite M1000 plate reader (Tecan)
Experimental Procedure for IL-17 Production Assay
Cryopreserved peripheral blood human mononuclear cells (PBMCs) were rapidly thawed in warmed Lymphocyte media, and centrifuged cell suspension at 1000 rpm for 10 minutes. The supernatant was removed, and the cell pellets were gently resuspended in TexMACS media.
Human PBMC cells in TexMACS media were plated at 1×10^5 each well in triplicate. The test compounds at various concentrations or vehicle control (<0.5% DMSO) were added into cell culture. The cells were stimulated by cytostim (10 μL/mL) for 3 days in a humidified, 5% CO2 incubator at 37° C.
After incubation, the cell culture supernatant was harvested, and then removed particulates by centrifugation. Human IL-17 in the supernatant was measured using human IL-17 ELISA kit according to the manufacturer's protocol. IC50 values were determined using GraphPad Prism by plotting the compounds concentration versus percent inhibition.

IC50 [1] [µM]	SMILES	IC50 ([2]; Homo sapiens, PBMC, 72 h) [µM]	IC50 [2] [µM]
0.01	NC(=O)CC(c1ccc(S(=O)(=O)CC2CC2)cc1)c1nc2cc(Cl)c(-c3ccccc3OC(F)F)cc2[nH]1 (stereo not drawn) [Example 141, 3-(5-chloro-6-(2-(difluoromethoxy)phenyl)-1H-benzo[d]imidazol-2-yl)-3-(4-((cyclopropylmethyl)sulfonyl)phenyl)propanamide]	0.02	
0.003	CCS(=O)(=O)c1ccc(C(CO)c2nc3c(Cl)c(-c4ccccc4OC)c(Cl)cc3[nH]2)cc1 (stereo not drawn) [Example 6, 2-(4,6-dichloro-5-(2-methoxyphenyl)-1H-benzo[d]imidazol-2-yl)-2-(4-(ethylsulfonyl)phenyl)ethanol]	0.022	
0.029	O=S(=O)(CC1CC1)c1ccc(C(CO)c2nc3c(Cl)c(-c4ccccc4OC(F)F)c(Cl)cc3[nH]2)cc1 (stereo not drawn) [Example 73, 2-(4-((cyclopropylmethyl)sulfonyl)phenyl)-2-(4,6-dichloro-5-(2-(difluoromethoxy)phenyl)-1H-benzo[d]imidazol-2-yl)ethanol]	0.001	
0.086	CCS(=O)(=O)c1ccc(C(O)c2nc3c(Cl)c(-c4ccccc4OC)c(Cl)cc3[nH]2)cc1 (stereo not drawn) [Example 7, (4,6-dichloro-5-(2-methoxyphenyl)-1H-benzo[d]imidazol-2-yl)(4-(ethylsulfonyl)phenyl)methanol]	0.223	
0.269	CCS(=O)(=O)c1ccc(C(CO)c2nc3c(Cl)c(-c4ccccc4OC(F)F)c(Cl)cc3[nH]2)cc1 (stereo not drawn) [Example 29, 2-(4,6-dichloro-5-(2-(difluoromethoxy)phenyl)-1H-benzo[d]imidazol-2-yl)-2-(4-(ethylsulfonyl)phenyl)ethanol]	0.009	
0.031	O=S(=O)(CC1CC1)c1ccc(Cc2nc3c(Cl)c(-c4ccccc4OC(F)(F)F)c(Cl)cc3[nH]2)c(F)c1 [Example 80, 4,6-dichloro-2-(4-((cyclopropylmethyl)sulfonyl)-2-fluorobenzyl)-5-(2-(trifluoromethoxy)phenyl)-1H-benzo[d]imidazole]	0.013	
0.083	CC(C)Oc1ccccc1-c1cc2nc(C(CC(N)=O)c3ccc(S(=O)(=O)CC4CC4)cc3)[nH]c2cc1Cl (single isomer, unassigned) [the longer retention time of 148 and 149, 3-(6-chloro-5-(2-isopropoxyphenyl)-1H-benzo[d]imidazol-2-yl)-3-(4-((cyclopropylmethyl)sulfonyl)phenyl)propanamide]		0.022
0.005	O=S(=O)(CC1CC1)c1ccc(C(CCO)c2nc3cc(Cl)c(-c4ccccc4OC(F)F)c(Cl)c3[nH]2)cc1 (stereo not drawn) [Example 159, 3-(4-((cyclopropylmethyl)sulfonyl)phenyl)-3-(5,7-dichloro-6-(2-(difluoromethoxy)phenyl)-1H-benzo[d]imidazol-2-yl)propan-1-ol]	0.01	
0.002	O=S(=O)(CC1CC1)c1ccc(Cc2nc3c(Cl)c(-c4ccccc4OC(F)(F)F)c(Cl)cc3[nH]2)cc1 [Example 66, 4,6-dichloro-2-(4-((cyclopropylmethyl)sulfonyl)benzyl)-5-(2-(trifluoromethoxy)phenyl)-1H-benzo[d]imidazole]	0.01	
0.002	O=S(=O)(CC1CC1)c1ccc(C(CO)c2nc3c(Cl)c(-c4ccccc4OC(F)(F)F)c(Cl)cc3[nH]2)cc1 (stereo not drawn) [Example 67, 2-(4-((cyclopropylmethyl)sulfonyl)phenyl)-2-(4,6-dichloro-5-(2-(trifluoromethoxy)phenyl)-1H-benzo[d]imidazol-2-yl)ethanol]	0.002	
0.373	CCS(=O)(=O)c1ccc(Cc2nc3c(Cl)c(-c4ccccc4C(F)(F)F)c(Cl)cc3[nH]2)cc1 [Example 3, 4,6-dichloro-2-(4-(ethylsulfonyl)benzyl)-5-(2-(trifluoromethyl)phenyl)-1H-benzo[d]imidazole]	0.052	
0.003	O=S(=O)(CC1CC1)c1ccc(C(CCO)c2nc3cc(Cl)c(N4CCC(F)(F)CC4)c(Cl)c3[nH]2)cc1 (single isomer, unassigned) [the longer retention time of 160 and 161, 3-(4-((cyclopropylmethyl)sulfonyl)phenyl)-3-(5,7-dichloro-6-(4,4-difluoropiperidin-1-yl)-1H-benzo[d]imidazol-2-yl)propan-1-ol]		0.004
0.031	CCS(=O)(=O)c1ccc(C(O)c2nc3c(Cl)c(-c4ccccc4OCC(F)(F)F)c(Cl)cc3[nH]2)cc1 (stereo not drawn) [Example 33, (4,6-dichloro-5-(2-(2,2,2-trifluoroethoxy)phenyl)-1H-benzo[d]imidazol-2-yl)(4-(ethylsulfonyl)phenyl)methanol]	0.015	
0.147	CCS(=O)(=O)c1ccc(/C(=N\O)c2nc3c(Cl)c(-c4ccccc4OC(F)F)c(Cl)cc3[nH]2)cc1 [Example 38, (E,Z)-(4,6-dichloro-5-(2-(difluoromethoxy)phenyl)-1H-benzo[d]imidazol-2-yl)(4-(ethylsulfonyl)phenyl)methanone oxime]	0.873	
0.013	NC(=O)CC(c1ccc(S(=O)(=O)CC2CC2)cc1)c1nc2cc(-c3ccccc3OC(F)F)c(Cl)cc2[nH]1 (single isomer, unassigned) [the longer retention time of 152 and 153, 3-(6-chloro-5-(2-(difluoromethoxy)phenyl)-1H-benzo[d]imidazol-2-yl)-3-(4-((cyclopropylmethyl)sulfonyl)phenyl)propanamide]		0.01
0.71	O=S(=O)(CC1CC1)c1ccc(C(CCN2CCOCC2)c2nc3cc(Cl)c(N4CCC(F)(F)CC4)c(Cl)c3[nH]2)cc1 (stereo not drawn) [Example 170, 4-(3-(4-((cyclopropylmethyl)sulfonyl)phenyl)-3-(5,7-dichloro-6-(4,4-difluoropiperidin-1-yl)-1H-benzo[d]imidazol-2-yl)propyl)morpholine]	0.43	
0.626	CCS(=O)(=O)c1ccc(C(O)c2nc3c(Cl)c(-c4ccccc4OC(F)(F)F)c(Cl)cc3[nH]2)cc1 (stereo not drawn) [Example 5, (4,6-dichloro-5-(2-(trifluoromethoxy)phenyl)-1H-benzo[d]imidazol-2-yl)(4-(ethylsulfonyl)phenyl)methanol]	0.025	
	NC(=O)CC(c1ccc(S(=O)(=O)CC2CC2)cc1)c1nc2cc(Cl)c(N3CCC(F)(F)CC3)c(Cl)c2[nH]1 (single isomer, unassigned) [the shorter retention time of 162 and 163] [3-(4-((cyclopropylmethyl)sulfonyl)phenyl)-3-(5,7-dichloro-6-(4,4-difluoropiperidin-1-yl)-1H-benzo[d]imidazol-2-yl)propanamide]		0.069
	CC(C)Oc1ccccc1-c1cc2nc(C(CCO)c3ccc(S(=O)(=O)CC4CC4)cc3)[nH]c2cc1Cl (single isomer, unassigned) [the shorter retention time of 150 and 151] [3-(6-chloro-5-(2-isopropoxyphenyl)-1H-benzo[d]imidazol-2-yl)-3-(4-((cyclopropylmethyl)sulfonyl)phenyl)propan-1-ol]		0.718

— patent US12187684B2, “Benzimidazole derivatives as modulators of retinoid-related orphan receptor gamma (RORγ) and pharmaceutical use thereof” (Jiangsu Hengrui Medicine Co., Ltd., priority 2018, dated 2025)
